US7264956B2, “Compounds and methods for inhibiting axillary malodour” (Givaudan SA, priority 2001, dated 2007)
Where two headings read alike, the source gives them in different places. Where a SMILES comes first, the peptide text is derived from it.

Assays:
[1] = molecular target: T1, enzyme extracted from Corynebacterium striatum A×20 (AMRE, Nα-acyl-glutamine-aminoacylase) (Corynebacterium striatum, UniProt Q8GGD4); experiment: Substrate specificity of the enzyme (capillary GC of released acid or alcohol); format: biochemical; conditions: for Cleavage by enzyme: 500 ppm in Buffer A, 24 h incubation
T1 construct: an enzyme may be isolated from cellular extracts obtained from wild-type bacterial strains; endogenous in cells; host or cells: Corynebacterium striatum Ax20 (DSM 14267), mechanically disrupted; crude extract or chromatographically purified enzyme
Experimental: To understand in detail the structural requirements of substrates, the enzyme extracted from Corynebacterium striatum A×20 was incubated with a wide variety of said compounds related to the originally isolated Nα-3-methyl-3-hydroxy-hexanoyl-L-glutamine present in sweat. Each compound was used at a concentration of 500 ppm in Buffer A, and analysis of released acid or alcohol was done by capillary GC after 24 h of incubation. First, different modifications at the N-terminus were tested.

[2] = molecular target: T2, isolated enzyme (extracts of A×20) (Corynebacterium striatum, UniProt Q8GGD4); experiment: Low throughput screening for inhibitors, isolated enzyme (released lauric acid by GC); format: biochemical; conditions: substrate Nα-lauroyl-L-glutamine, 2 h; for inhibition at 5000 µM / % inhibition of the isolated enzyme: 5 mM
T2 construct: an enzyme may be isolated from cellular extracts obtained from wild-type bacterial strains; endogenous in cells; host or cells: Corynebacterium striatum Ax20 (DSM 14267), mechanically disrupted; crude extract or chromatographically purified enzyme
Experimental: (§1) Extracts of A×20 were prepared by mechanical disruption as described in Example 3. The extract (0.5 ml corresponding to 2 ml initial cell culture) was added to 3.5 ml of Buffer A and amended with 40 μl of substrate (Nα-lauroyl-L-glutamine, 5% stock solution in methanol). Parallel samples were additionally amended with potential inhibitory compounds to give a final concentration of 0.5 and 5 mM. The samples were incubated for 2 h and then extracted with MTBE and HCI and analysed for released lauric acid using capillary GC. By comparing the samples containing potential inhibitory compounds with control samples with enzyme and substrate only, the inhibition (%) was calculated. The same assay was also made either with purified enzyme from the wild-type strain (see example 3) or with extracts from E.coli Top 10/pBADgIII AMRE induced with arabinose (see example 6). Furthermore, the same assay was made using stationary phase living cells of A×20 instead of an isolated enzyme preparation. In this case successful uptake of the inhibitors into the cells and inhibition are measured simultaneously.

[3] = molecular target: T3, enzyme activity in living cells of A×20 (Corynebacterium striatum, UniProt Q8GGD4); experiment: Low throughput screening for inhibitors, stationary phase living cells of A×20; format: cell-based; conditions: 5 mM; substrate Nα-lauroyl-L-glutamine, 2 h
T3 construct: stationary phase living cells of A×20; endogenous in cells; host or cells: Corynebacterium striatum Ax20, stationary-phase living cells
Experimental: as §1

T3 sequence (Q8GGD4 2-400): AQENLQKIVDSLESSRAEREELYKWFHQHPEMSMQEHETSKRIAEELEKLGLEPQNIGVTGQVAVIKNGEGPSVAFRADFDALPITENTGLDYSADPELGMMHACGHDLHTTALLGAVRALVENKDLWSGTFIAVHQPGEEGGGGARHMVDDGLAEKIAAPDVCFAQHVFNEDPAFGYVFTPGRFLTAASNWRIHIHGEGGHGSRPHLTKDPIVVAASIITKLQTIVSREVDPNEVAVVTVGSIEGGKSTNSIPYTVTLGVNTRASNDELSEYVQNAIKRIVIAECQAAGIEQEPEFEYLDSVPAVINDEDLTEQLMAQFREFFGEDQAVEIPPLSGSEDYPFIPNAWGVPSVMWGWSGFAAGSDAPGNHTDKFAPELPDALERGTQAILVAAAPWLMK
T1 sequence (Q8GGD4 2-400): as above
T2 sequence (Q8GGD4 2-400): as above

Row | SMILES | cleavage of substrate by enzyme (in words) [1] | Cleavage by enzyme [1] | also measured
1 | CC(CCOC(=O)N[C@@H](CCC(N)=O)C(=O)O)CCc1ccccc1 (stereo partly drawn) [Nα-(3-Methyl-5-phenylpentanoxycarbonyl)-L-glutamine] | able to be cleaved |  | 
2 | CCC=CCCOC(=O)N[C@@H](CCC(N)=O)C(=O)O [Nα-(3-hexenyl)oxycarbonyl-L-glutamine] | able to be cleaved |  | 
3 | c1ccc(-c2ccccn2)nc1 [2,2′-bipyridyl] |  |  | inhibition at 5000 µM [2]: 65%
4 | CC1=CCC(CCOC(=O)N[C@@H](CCC(N)=O)C(=O)O)C1(C)C (stereo partly drawn) [Nα-[2-(2,2,3-trimethyl-cyclopent-3-enyl)-ethoxycarbonyl)-L-glutamine] | able to be cleaved |  | 
5 | CCCCCCCCCC(=O)N[C@@H](CCC(N)=O)C(=O)O [Nα-decanoyl-L-glutamine] | able to be cleaved |  | 
6 | CCCCCCCCCCCCCC(=O)N[C@@H](CCC(N)=O)C(=O)O [Nα-tetradecanoyl-L-glutamine] | able to be cleaved |  | 
7 | CCCC(C)(O)CC(=O)N[C@@H](CCC(N)=O)C(=O)O (stereo partly drawn) [Nα-(3-hydroxy-3-methyl-hexanoyl)-L-glutamine] | able to be cleaved |  | 
8 | O=C(O)CC[C@H](NC(=O)OCc1ccccc1)C(=O)O [compound 11, Carbobenzyloxy-L-glutamate] |  | − | 
9 | CC(C)=CCCC(C)CCOC(=O)N[C@@H](CCC(N)=O)C(=O)O (stereo partly drawn) [compound 5, Nα-3,7-Dimethyl-6-octenyloxycarbonyl-L-glutamine] | can cleave | +++ (+++ cleavage over 50%) | 
10 | CCCCCCCCCCCC(=O)N[C@@H](CC(=O)O)C(=O)O [compound 6, N-Lauroyl-L-aspartate] |  | − | 
11 | NC(=O)CC[C@H](NC(=O)OCC12CC3CC(CC(C3)C1)C2)C(=O)O [Nα-(2-Adamantan-1-yl-methoxycarbonyl)-L-glutamine] | able to be cleaved |  | 
12 | CCC(NCCNC(CC)C(=O)O)C(=O)O (stereo not drawn) [Ethylen-diimino-dibutyric acid] |  |  | % inhibition of the isolated enzyme [2]: 44.3%; % inhibition of enzyme activity in living cells [3]: 53.7%
13 | CC(C)=CCCC(C)CCOC(=O)N[C@@H](CCC(N)=O)C(=O)O (stereo partly drawn) [Nα-3,7-Dimethyl-6-octenyloxycarbonyl-L-glutamine] | able to be cleaved |  | 
14 | CCCCCCCCCC(=O)N[C@@H](CCC(N)=O)C(=O)O [compound 3, Nα-decanoyl-L-glutamine] |  | +++ (+++ cleavage over 50%) | 
15 | COC(=O)[C@H](CCC(N)=O)NC(=O)OCc1ccccc1 [compound 20, Carbobenzyloxy-L-glutamine-O-Me] | does not cleave | − | 
16 | OC(CS)C(O)CS (stereo not drawn) [Dithiothreitol, 2,3-dihydroxy-butane-1,4-dithiol] |  |  | inhibition at 500 µM ([2]; 0.5 mM): 98%; inhibition at 5000 µM [2]: 100%
17 | CCCCCCCCCCCC(=O)N[C@@H](CCCNC(=N)N)C(=O)O [compound 8, Nα-Lauroyl-L-arginine] |  | − | 
18 | c1ccc(CN(CCN(Cc2ccccn2)Cc2ccccn2)Cc2ccccn2)nc1 [N,N,N′,N′-tetrakis-(2-pyridylmethyl)-ethylendiamine] |  |  | inhibition at 5000 µM [2]: 87.9%; inhibition at 5000 µM [3]: 85.2%
19 | C[C@H](NC(=O)OCc1ccccc1)C(=O)O [compound 10, Carbobenzyloxy-L-alanine] |  | + (+ indicates cleavage < 10%) | 
20 | NC(=O)CC[C@@H](NC(=O)OCc1ccccc1)C(=O)O [compound 19, Carbobenzyloxy-D-glutamine] | cannot cleave | − | 
21 | CCCC(C)=CC(=O)N[C@@H](CCC(N)=O)C(=O)O [Nα(3-methyl-2-hexenoyl)-L-glutamine] | able to be cleaved |  | 

Row | SMILES | cleavage of substrate by enzyme (in words) [1] | Cleavage by enzyme [1] | also measured
22 | CCCCCCCCCCCC(=O)N[C@@H](C)C(=O)O [compound 9, N-lauroyl-L-alanine] |  | + (+ indicates cleavage < 10%) | 
23 | NC(=O)CC[C@H](NC(=O)OCCc1ccccc1)C(=O)O [Nα-2-Phenylethyloxycarbonyl-L-glutamine] | able to be cleaved |  | 
24 | CCCCCCCCCCCC(=O)N[C@@H](CCCCN)C(=O)O [compound 7, Nα-Lauroyl-L-lysine] |  | − | 
25 | O=C(O)CNC(=O)OCc1ccccc1 [compound 16, Carbobenzyloxy-L-glycine] |  | − | 
26 | C=CCCCCCCCCC(=O)N[C@@H](CCC(N)=O)C(=O)O [Nα-(11-undecenoyl)-L-glutamine] | able to be cleaved |  | 
27 | NC(=O)CC[C@H](NC(=O)OCc1ccccc1)C(=O)NCC(=O)O [compound 21, Carbobenzyloxy-L-glutamine- Gly-OH] (HELM PEPTIDE1{[O=C(OCc1ccccc1)[*:2]].Q.G}$$$$V2.0) | does not cleave | − | 
28 | NC(=O)CC[C@H](NC(=O)OCc1ccccc1)C(=O)O [compound 4, Carbobenzyloxy-L-glutamine] |  | ++ (++ cleavage 10–50%) | cleavage of substrate by enzyme (in words) ([1]; listed as Nα-Carbobenzyloxy-L-glutamine): able to be cleaved; cleavage of substrate by enzyme (in words) ([1]; listed as Nα-carbobenzyloxy-L-glutamine): can cleave
29 | NC(=O)CC[C@H](NC(=O)OCCC12CC3CC(CC(C3)C1)C2)C(=O)O [Nα-(2-Adamantan-1-yl-ethoxycarbonyl)-L-glutamine] | able to be cleaved |  | 
30 | CC(C)C[C@H](NC(=O)OCc1ccccc1)C(=O)O [compound 18, Carbobenzyloxy-L-leucine] |  | − | 
31 | CC(C)(C)C1CCC(OC(=O)N[C@@H](CCC(N)=O)C(=O)O)CC1 (stereo partly drawn) [Nα-(4-tert-Butylcyclohexyloxycarbonyl)-L-glutamine] | able to be cleaved |  | 
32 | CCCCOC(=O)N[C@@H](CCC(N)=O)C(=O)O [Nα-Butyloxycarbonyl-L-glutamine] | able to be cleaved |  | 
33 | O=C(N[C@@H](Cc1c[nH]cn1)C(=O)O)OCc1ccccc1 [compound 17, Carbobenzyloxy-L-histidine] |  | − | 
34 | O=C(O)c1cccc(C(=O)O)n1 [Pyridine-2,6dicarboxylic acid] |  |  | inhibition at 5000 µM [2]: 100%; inhibition at 5000 µM [3]: 64.3%
35 | COc1ccc(SC(=O)N[C@@H](CCC(N)=O)C(=O)O)cc1 [Nα-(4-methoxy-phenylsulfanylcarbonyl)-L-glutamine] | able to be cleaved |  | 
36 | O=C(CC[C@H](NOCc1ccccc1)C(=O)O)NCc1ccccc1 [compound 22, 4-benzylcarbamoyl-2-(S)-benzyloxyamino-butyric acid] | cannot cleave | − | 
37 | O=C(O)CNCCNCC(=O)O [Ethylendiamine-2-2′-diacetic acid] |  |  | % inhibition of the isolated enzyme [2]: 100%; % inhibition of enzyme activity in living cells [3]: 58.3%
38 | O=C(N[C@@H](CO)C(=O)O)OCc1ccccc1 [compound 14, Carbobenzyloxy-L-serine] |  | − | 
39 | O=C(O)C[C@H](NC(=O)OCc1ccccc1)C(=O)O [compound 13, Carbobenzyloxy-L-aspartate] |  | − | 
40 | O=C(N[C@@H](Cc1ccc(O)cc1)C(=O)O)OCc1ccccc1 [compound 15, Carbobenzyloxy-L-tyrosine] |  | − | 
41 | O=P(O)(O)CN(CP(=O)(O)O)CP(=O)(O)O [Aminotri(methylene-phosphonic acid)] |  |  | % inhibition of the isolated enzyme [2]: 76.6%; % inhibition of enzyme activity in living cells [3]: 55.7%
